22 molecules from PubChem BioAssay (NCI) can be followed below.

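1) Cells in 96-well plates. 2) Compound, 48 h, 5 concentrations. 3) Linear interpolation between surrounding doses. 4) Unreached endpoint = highest concentration. TGI marks complete inhibition of growth.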 Where a SMILES comes first, the peptide text is derived from it. [ ]: non-standard residue; d: D form. The star is where a group is joined. ξ: configuration not given here. ξF = NC(Cc1ccccc1)C(=O)O; Cbz = O=C(OCc1ccccc1)* A value given as a limit tells only on which side of the number the result lay.

The first assay concerns NCI-H23 lung. The assay can be described thus: NCI tumour cell line growth inhibition, 48 h.
Consider `CC(SC(=S)N1CCOCC1)C(=O)Nc1nnc(-c2ccc(Cl)cc2)o1` (stereo unspecified), for which the TGI is greater than 100 µM.

As to `CC(=O)c1ccc(Nc2c3c(nc4ccccc24)CCCC3)cc1`, the TGI came to 43.4 µM.

Turning to `CCN1CCC(O)(c2ccc([N+](=O)[O-])cc2)C(C(=O)c2ccc([N+](=O)[O-])cc2)C1` (stereo unspecified), the TGI worked out at 36.4 µM.

`CCOC(=O)CNC(=O)C(Cc1ccccc1)NC(=O)OCc1ccccc1` (stereo unspecified) (Cbz-[ξF]-Gly-OEt): the TGI is greater than 100 µM.

Molecule `S=C1Cc2c(-c3ccccc3)cc(-c3cccc(Cl)c3)nc2-c2ccccc2N1` came in with a TGI of 21.2 µM.

Consider `N#Cc1sc2nc3ccccc3n2c1N`, for which the TGI is greater than 100 µM.

For `O=C(CCc1cc(O)cc(O)c1)NCCc1cc(O)cc(OCc2ccccc2)c1`, the TGI was greater than 100 µM.

Molecule `N#Cc1c(NC(=O)C(F)(F)F)sc2c3c(=O)c4ccccc4c(=O)c=3oc3ccccc3c12` returned a TGI of 38.4 µM.

For `Cc1c(C)c2c(c(N)c1C#N)C(=O)N(Cc1ccc(S(N)(=O)=O)cc1)C2=O`, the TGI is greater than 100 µM.

With `CN(NC1=NCCO1)c1ccc2ccccc2c1`, the TGI is greater than 100 µM.

Turning to `COC(=O)/C=C/c1ccc(OP(=O)(O)O)c(OC)c1`, the TGI was greater than 100 µM.

As to `O=C(NCCN(CCNC(=O)c1cccc(O)c1O)CCNC(=O)c1cccc(O)c1O)c1cccc(O)c1O`, the TGI was greater than 57.4 µM.

`COc1cc2nc(Cl)nc(NS(=O)(=O)c3cc4ccccc4s3)c2cc1OC` gave a TGI of 62.5 µM.

For `COC(=O)/C=C(\C(=O)OC)c1cc(C)c2cc(C(C)C)ccc(C)c1-2`, the TGI was greater than 100 µM.

`C[C@@H](CC(=O)OCc1ccccc1)OC1OC(COC(=O)C(C)(C)C)C(OC(=O)C(C)(C)C)C(OC(=O)C(C)(C)C)C1OC(=O)C(C)(C)C` (stereo partly specified) registered a TGI greater than 100 µM.

Turning to `CC(C)(C)OC(=O)N(CCCCNC(=O)C(F)(F)F)CCCNC(=O)C(F)(F)F`, the TGI is greater than 100 µM.

In the case of `C=C1CC[C@@H](CCC2CCC3(OC2)O[C@]2(O)CC[C@@]3(C)OC2(C)C)C(C)(C)[C@H]1C/C=C1\CCOC1=O` (stereo partly specified), the TGI is greater than 100 µM.

Molecule `Cc1nc2c(sc3nc4c(cc32)CCC4)c(=O)o1` came in with a TGI greater than 100 µM.

As to `Cc1ccc(OCC2OC(n3cnc4c(Cl)nc(Nc5cc(Cl)cc(Cl)c5)nc43)CC2Oc2ccc(C)cc2)cc1` (stereo unspecified), the TGI was greater than 100 µM.

For `C=CCON(C(=O)OC(C)(C)C)C(C)(C)C`, the TGI was greater than 100 µM.

`COC(=O)c1c(C)cccc1/C=C1\Cc2ccc(C)c(C)c2C1=O`: the TGI was greater than 100 µM.

In the case of `COc1ccccc1C1c2cc3c(cc2OC2(OC)COC(=O)C12)OCO3` (stereo unspecified), the TGI is greater than 100 µM.

A further assay deals with RPMI-8226 leukemia. The assay can be described thus: NCI tumour cell line growth inhibition, 48 h.
`CC(SC(=S)N1CCOCC1)C(=O)Nc1nnc(-c2ccc(Cl)cc2)o1` (stereo unspecified) returned a TGI of 66.3 µM.

`CC(=O)c1ccc(Nc2c3c(nc4ccccc24)CCCC3)cc1`: the TGI is greater than 100 µM.

`CCN1CCC(O)(c2ccc([N+](=O)[O-])cc2)C(C(=O)c2ccc([N+](=O)[O-])cc2)C1` (stereo unspecified) showed a TGI of 17.8 µM.

The molecule `CCOC(=O)CNC(=O)C(Cc1ccccc1)NC(=O)OCc1ccccc1` (stereo unspecified) (Cbz-[ξF]-Gly-OEt) yielded a TGI greater than 100 µM.

`S=C1Cc2c(-c3ccccc3)cc(-c3cccc(Cl)c3)nc2-c2ccccc2N1` came in with a TGI of 56.2 µM.

`N#Cc1sc2nc3ccccc3n2c1N` yielded a TGI greater than 100 µM.

`O=C(CCc1cc(O)cc(O)c1)NCCc1cc(O)cc(OCc2ccccc2)c1`: the TGI was determined as 90.5 µM.

For the molecule `N#Cc1c(NC(=O)C(F)(F)F)sc2c3c(=O)c4ccccc4c(=O)c=3oc3ccccc3c12`, the TGI was found to be 56.2 µM.

Turning to `Cc1c(C)c2c(c(N)c1C#N)C(=O)N(Cc1ccc(S(N)(=O)=O)cc1)C2=O`, the TGI was greater than 100 µM.

Molecule `CN(NC1=NCCO1)c1ccc2ccccc2c1` had a TGI greater than 100 µM.

For `COC(=O)/C=C/c1ccc(OP(=O)(O)O)c(OC)c1`, the TGI is greater than 100 µM.

Molecule `O=C(NCCN(CCNC(=O)c1cccc(O)c1O)CCNC(=O)c1cccc(O)c1O)c1cccc(O)c1O` had a TGI greater than 59.7 µM.

Molecule `COc1cc2nc(Cl)nc(NS(=O)(=O)c3cc4ccccc4s3)c2cc1OC` gave a TGI of 44.9 µM.

Consider `COC(=O)/C=C(\C(=O)OC)c1cc(C)c2cc(C(C)C)ccc(C)c1-2`, for which the TGI was greater than 100 µM.

`C[C@@H](CC(=O)OCc1ccccc1)OC1OC(COC(=O)C(C)(C)C)C(OC(=O)C(C)(C)C)C(OC(=O)C(C)(C)C)C1OC(=O)C(C)(C)C` (stereo partly specified) yielded a TGI greater than 100 µM.

`CC(C)(C)OC(=O)N(CCCCNC(=O)C(F)(F)F)CCCNC(=O)C(F)(F)F` came in with a TGI greater than 100 µM.

In turn, `C=C1CC[C@@H](CCC2CCC3(OC2)O[C@]2(O)CC[C@@]3(C)OC2(C)C)C(C)(C)[C@H]1C/C=C1\CCOC1=O` (stereo partly specified) showed a TGI of 31.2 µM.

Consider `Cc1nc2c(sc3nc4c(cc32)CCC4)c(=O)o1`, for which the TGI was greater than 88.3 µM.

With `Cc1ccc(OCC2OC(n3cnc4c(Cl)nc(Nc5cc(Cl)cc(Cl)c5)nc43)CC2Oc2ccc(C)cc2)cc1` (stereo unspecified), the TGI was greater than 100 µM.

Molecule `C=CCON(C(=O)OC(C)(C)C)C(C)(C)C` came in with a TGI greater than 100 µM.

The molecule `COC(=O)c1c(C)cccc1/C=C1\Cc2ccc(C)c(C)c2C1=O` came in with a TGI greater than 100 µM.

With `COc1ccccc1C1c2cc3c(cc2OC2(OC)COC(=O)C12)OCO3` (stereo unspecified), the TGI amounted to 28.3 µM.

The subject of a further assay is SF-268 CNS. The assay can be described thus: NCI tumour cell line growth inhibition, 48 h.
`CC(SC(=S)N1CCOCC1)C(=O)Nc1nnc(-c2ccc(Cl)cc2)o1` (stereo unspecified) displayed a TGI greater than 100 µM.

`CC(=O)c1ccc(Nc2c3c(nc4ccccc24)CCCC3)cc1` showed a TGI greater than 100 µM.

In turn, `CCN1CCC(O)(c2ccc([N+](=O)[O-])cc2)C(C(=O)c2ccc([N+](=O)[O-])cc2)C1` (stereo unspecified) had a TGI of 46 µM.

With `CCOC(=O)CNC(=O)C(Cc1ccccc1)NC(=O)OCc1ccccc1` (stereo unspecified) (Cbz-[ξF]-Gly-OEt), the TGI was greater than 100 µM.

With `S=C1Cc2c(-c3ccccc3)cc(-c3cccc(Cl)c3)nc2-c2ccccc2N1`, the TGI amounted to 17.7 µM.

`N#Cc1sc2nc3ccccc3n2c1N` showed a TGI greater than 100 µM.

For the molecule `O=C(CCc1cc(O)cc(O)c1)NCCc1cc(O)cc(OCc2ccccc2)c1`, the TGI was greater than 100 µM.

The molecule `N#Cc1c(NC(=O)C(F)(F)F)sc2c3c(=O)c4ccccc4c(=O)c=3oc3ccccc3c12` gave a TGI of 61.4 µM.

Take `Cc1c(C)c2c(c(N)c1C#N)C(=O)N(Cc1ccc(S(N)(=O)=O)cc1)C2=O`: the TGI is greater than 86.3 µM.

`CN(NC1=NCCO1)c1ccc2ccccc2c1`: the TGI is greater than 100 µM.

With `COC(=O)/C=C/c1ccc(OP(=O)(O)O)c(OC)c1`, the TGI is greater than 100 µM.

Molecule `O=C(NCCN(CCNC(=O)c1cccc(O)c1O)CCNC(=O)c1cccc(O)c1O)c1cccc(O)c1O` gave a TGI greater than 100 µM.

As to `COc1cc2nc(Cl)nc(NS(=O)(=O)c3cc4ccccc4s3)c2cc1OC`, the TGI was greater than 100 µM.

In the case of `COC(=O)/C=C(\C(=O)OC)c1cc(C)c2cc(C(C)C)ccc(C)c1-2`, the TGI was greater than 100 µM.

`C[C@@H](CC(=O)OCc1ccccc1)OC1OC(COC(=O)C(C)(C)C)C(OC(=O)C(C)(C)C)C(OC(=O)C(C)(C)C)C1OC(=O)C(C)(C)C` (stereo partly specified) registered a TGI greater than 100 µM.

`CC(C)(C)OC(=O)N(CCCCNC(=O)C(F)(F)F)CCCNC(=O)C(F)(F)F` had a TGI greater than 100 µM.

In turn, `C=C1CC[C@@H](CCC2CCC3(OC2)O[C@]2(O)CC[C@@]3(C)OC2(C)C)C(C)(C)[C@H]1C/C=C1\CCOC1=O` (stereo partly specified) had a TGI greater than 100 µM.

On to `Cc1nc2c(sc3nc4c(cc32)CCC4)c(=O)o1`, for which the TGI is greater than 100 µM.

In turn, `Cc1ccc(OCC2OC(n3cnc4c(Cl)nc(Nc5cc(Cl)cc(Cl)c5)nc43)CC2Oc2ccc(C)cc2)cc1` (stereo unspecified) had a TGI greater than 100 µM.

On to `C=CCON(C(=O)OC(C)(C)C)C(C)(C)C`, for which the TGI is greater than 100 µM.

With `COC(=O)c1c(C)cccc1/C=C1\Cc2ccc(C)c(C)c2C1=O`, the TGI is greater than 100 µM.

Take `COc1ccccc1C1c2cc3c(cc2OC2(OC)COC(=O)C12)OCO3` (stereo unspecified): the TGI was determined as 83.9 µM.
